Results taken from patent US20250368651A1 (priority 2022, published 2025).
Like-named read-outs stand apart in the source and are kept apart here.

Key:
[1] = system: SMN2 exon 7 splicing; experiment: Cell-based SMN2 splicing assay in 293T cells (minigene); set-up: species or system human; settings: for EC50: Homo sapiens, HEK-293T; for splicing modulation in cells: cellular SMN2 splicing assays
[2] = system: RNA Seq6 UGAAGGAAGGU; experiment: Fluorescence polarization (FP) binding assay, RNA Seq6
Procedure: (§1) All synthetic DNA and RNA oligomers were purchased from Integrated DNA Technologies and reconstituted in nuclease-free water (Invitrogen #AM9932) at 1 mM. The concentration of the oligonucleotides at ˜0.1 mM was calibrated with the A260 value measured by a NanoDrop ND-1000 (Thermo, Waltham, MA, USA) and the predicted extinction coefficient (http://www.oligoevaluator.com) using Lamber-Beer's Law. The risdiplam analogues (1 mM in DMSO) were diluted in 2× assay buffer (40 mM HEPES, 200 mM NaCl for RNA; 40 mM HEPES, 200 mM NaCl, 1 mM MgCl2 for DNA) to make a 1 μM 2× working solution.
(§2) A 1:2 dilution series (8 points) of each oligonucleotide was prepared in 20-30 μL water to desired concentrations (i.e., 1-128 μM). 20-30 μL 2× working solution containing the 2× assay buffer and the small-molecule ligand was added to each oligonucleotide sample in 1:1 (v/v) and mixed by pipetting for 4 times. For fluorescence polarization measurement, 20 μL of the above 1× working solution was transferred into a 384-well, black, F-bottom microplates (Greiner Bio-One) in duplicates or triplicates. The plate was equilibrated at room temperature for 5 min before being read using a microplate reader (SYNERGY H1, BioTek; Excitation/Emission=360/460 nm) at 25° C. For compound SMN-C5, a competitive binding assay was employed to measure an apparent Kd. SMN-C5 was 1:2 serial diluted for 10 concentration points starting at 750 μM in DMSO. A mixture of SMN-C2 (0.5 μM) and DNA Seq6 (25 μM) in 1× assay buffer was prepared and incubated at room temperature for 10 minutes. 3 μL of SMN-C5 solution at each concentration was added to a 42 μL SMN-C2/DNA Seq6 mixture and incubated at room temperature for 10 minutes. The mixture was then transferred into a microplate (20 μL each well) in duplicates for fluorescence polarization readout. The experimental data were analyzed using Prism 8 software (Graphpad Software, San Diego, CA, USA).

[3] = biological target: DNA Seq6 (UGAAGGAAGGU as deoxyribonucleotides); experiment: FP binding assay, DNA Seq6; settings: footnote c: FP assay for DNA Seq6; range = 95% CI; read-out: Kd
Procedure: as §1, §2

[4] = biological target: RNA Seq4 […]; experiment: FP binding assay, RNA Seq4
Procedure: as §1, §2

[5] = biological target: COVID RNA (SARS-CoV-2 RNA SL5 per FIG. 8); experiment: FP binding, Kd for COVID RNA
[6] = in vitro; settings: human
[7] = in vitro; settings: human; remark: listed apart in the source
[8] = in vitro; settings: human; remark: listed apart in the source
[9] = system: gene splicing; settings: cited from earlier work
[10] = Table 3, read-out: SMN2 Splicing EC50
[11] = cell-based SMN2 splicing assay in 293T cells, read-out: SMN2 EC50

Row | Structure (SMILES) | EC50 [1, 10] [µM] | Kd [3] [µM] | EC50 [1, 11] [µM] | CC50 [8] [µM] | also measured
1 | CCOC(=O)C1=C(Nc2ccccc2)S/C(=C\c2ccc(OCCOCCn3cc(COCCOCCOCCOCCN4CCN(c5ccc6cc(-c7cn8cc(C)nc(C)c8n7)c(=O)oc6c5)CC4C)nn3)c(O)c2)C1=O (stereo in doubt) [Compound C9, (S,Z)-ethyl 5-(4-(2-(2-(4-(13-(4-(3-(6,8-dimethylimidazo[1,2-a]pyrazin-2-yl)-2-oxo-2H-chromen-7-yl)-2-methylpiperazin-1-yl)-2,5,8,11-tetraoxatridecyl)-1H-1,2,3-triazol-1-yl)ethoxy)ethoxy)-3-hydroxybenzylidene)-4-oxo-2-(phenylamino)-4,5-dihydrothiophene-3-carboxylate] | > 8 |  |  |  | 
2 | Cc1cn2cc(-c3cc4ccc(N5CCN(CCNC(=O)OC(C)(C)C)[C@@H](C)C5)cc4oc3=O)nc2c(C)n1 [Compound C6, (S)-tert-butyl(2-(4-(3-(6,8-dimethylimidazo[1,2-a]pyrazin-2-yl)-2-oxo-2H-chromen-7-yl)-2-methylpiperazin-1-yl)ethyl)carbamate] |  | 4 ± 0.3 | > 8 |  | reduction of binding to RNA Seq6 by the Boc group ([2]; Table 1 RNA Seq6 (SMN-C2) vs Table 2 entry 6): ~3 fold; Kd ([2]; footnote d: FP assay for RNA Seq6, read-out: Kd): 51.2 ± 4.9 µM; Kd [4]: 37.5 ± 14 µM; splicing modulation in cells [1]: without showing any observable splicing modulation; Kd ([5]; Table 3): 3 ± 0.4 µM; Kd ([5]; Table 4): 3.03 ± 0.4 µM
3 | Cc1cn2cc(-c3c(OCCNC(=O)OC(C)(C)C)c4ccc(N5CCN[C@@H](C)C5)cc4oc3=O)nc2c(C)n1 [Compound C7] | > 8 |  |  |  | 
4 | CC(=O)N1CCN(c2ccc3cc(-c4cn5cc(C)nc(C)c5n4)c(=O)oc3c2)C[C@@H]1C [Compound C8, (S)-7-(4-acetyl-3-methylpiperazin-1-yl)-3-(6,8-dimethylimidazo[1,2-a]pyrazin-2-yl)-2H-chromen-2-one] | > 8 |  |  |  | 
5 | Cc1cn2cc(-c3cc4ccc(N5CCN(CCOCCN=[N+]=[N-])[C@@H](C)C5)cc4oc3=O)nc2c(C)n1 [Compound C12, (S)-7-(4-(2-(2-azidoethoxy)ethyl)-3-methylpiperazin-1-yl)-3-(6,8-dimethylimidazo[1,2-a]pyrazin-2-yl)-2H-chromen-2-one] | 0.18 ± 0.04 |  |  |  | Kd ([5]; Table 3): 2.6 ± 0.8 µM; Kd ([5]; Table 4): 2.6 ± 0.8 µM
6 | Cc1cn2cc(-c3c(Br)c4ccc(N5CCN[C@@H](C)C5)cc4oc3=O)nc2c(C)n1 [Compound C13, (S)-4-bromo-3-(6,8-dimethylimidazo[1,2-a]pyrazin-2-yl)-7-(3-methylpiperazin-1-yl)-2H-chromen-2-one] | 0.45 ± 0.18 |  |  |  | 
7 | CN1CCN(c2ccc3cc(-c4ccccc4Cl)c(=O)oc3c2)CC1 [Compound C18, 3-(2-chlorophenyl)-7-(4-methylpiperazin-1-yl)-2H-chromen-2-one] | > 8 | > 100 | > 8 |  | 
8 | CN1CCN(c2ccc3cc(-c4cccc(Cl)c4)c(=O)oc3c2)CC1 [Compound C19, 3-(3-chlorophenyl)-7-(4-methylpiperazin-1-yl)-2H-chromen-2-one] | > 8 | 13.9 ± 1.1 | > 8 | > 30 | CC50 [6]: > 30 µM; CC50 [7]: > 30 µM
9 | CN1CCN(c2ccc3cc(-c4ccc(Cl)cc4)c(=O)oc3c2)CC1 [Compound C20, 3-(4-chlorophenyl)-7-(4-methylpiperazin-1-yl)-2H-chromen-2-one] | > 8 | 8.2 ± 0.7 | > 8 |  | splicing modulation in cells [1]: without showing any observable splicing modulation
10 | Cc1c(-c2ccccc2Cl)c(=O)oc2cc(N3CCN(C)CC3)ccc12 [Compound C21, 3-(2-chlorophenyl)-4-methyl-7-(4-methylpiperazin-1-yl)-2H-chromen-2-one] | > 8 |  |  |  | 
11 | Cc1c(-c2cccc(Cl)c2)c(=O)oc2cc(N3CCN(C)CC3)ccc12 [Compound C22, 3-(3-chlorophenyl)-4-methyl-7-(4-methylpiperazin-1-yl)-2H-chromen-2-one] | > 8 | > 100 | > 8 | > 30 | CC50 [6]: > 30 µM; CC50 [7]: > 30 µM
12 | Cc1c(-c2ccc(Cl)cc2)c(=O)oc2cc(N3CCN(C)CC3)ccc12 [Compound C23, 3-(4-chlorophenyl)-4-methyl-7-(4-methylpiperazin-1-yl)-2H-chromen-2-one] | > 8 | > 100 | > 8 |  | 
13 | CN1CCN(c2cc(F)c3cc(-c4ccccc4Cl)c(=O)oc3c2)CC1 [Compound C24, 3-(2-chlorophenyl)-5-fluoro-7-(4-methylpiperazin-1-yl)-2H-chromen-2-one] | > 8 |  |  |  | 
14 | CN1CCN(c2cc(F)c3cc(-c4cccc(Cl)c4)c(=O)oc3c2)CC1 [Compound C25, 3-(3-chlorophenyl)-5-fluoro-7-(4-methylpiperazin-1-yl)-2H-chromen-2-one] | > 8 | 18.7 ± 4 | > 8 |  | 
15 | CN1CCN(c2cc(F)c3cc(-c4ccc(Cl)cc4)c(=O)oc3c2)CC1 [Compound C26, 3-(4-chlorophenyl)-5-fluoro-7-(4-methylpiperazin-1-yl)-2H-chromen-2-one] | > 8 | 9.9 ± 0.9 | > 8 | > 30 | CC50 [6]: > 30 µM; CC50 [7]: > 30 µM
16 | COc1cn2cc(-c3cc4ccc(N5CCNCC5)cc4oc3=O)nc2cn1 [Compound C28, 3-(6-methoxyimidazo[1,2-a]pyrazin-2-yl)-7-(piperazin-1-yl)-2H-chromen-2-one] | > 8 | 1.4 ± 0.2 | > 8 |  | splicing modulation in cells [1]: without showing any observable splicing modulation; Kd ([5]; Table 3): 0.47 ± 0.08 µM; Kd ([5]; Table 4): 0.47 ± 0.8 µM
17 | O=c1oc2cc(N3CCNCC3)ccc2cc1-c1cn2ccccc2n1 [Compound C29, 3-(imidazo[1,2-a]pyridin-2-yl)-7-(piperazin-1-yl)-2H-chromen-2-one] | > 8 | 2.8 ± 0.5 | > 8 | 5.4 | splicing modulation in cells [1]: without showing any observable splicing modulation; Kd ([5]; Table 3): 0.46 ± 0.08 µM; Kd ([5]; Table 4): 0.46 ± 0.8 µM
18 | O=c1oc2cc(N3CCNCC3)ccc2cc1-c1cn2cc(F)ccc2n1 [Compound C31, 3-(6-fluoroimidazo[1,2-a]pyridin-2-yl)-7-(piperazin-1-yl)-2H-chromen-2-one] |  |  |  | 4.7 | Kd ([5]; Table 3): 0.68 ± 0.1 µM; Kd ([5]; Table 4): 0.68 ± 0.1 µM
19 | O=c1oc2cc(N3CCNCC3)ccc2cc1-c1cn2ccc(Cl)cc2n1 [Compound C32, 3-(7-chloroimidazo[1,2-a]pyridin-2-yl)-7-(piperazin-1-yl)-2H-chromen-2-one] | > 8 |  |  |  | Kd ([5]; Table 3): 0.4 ± 0.04 µM; Kd ([5]; Table 4): 0.4 ± 0.4 µM
20 | O=c1oc2cc(N3CCNCC3)ccc2cc1-c1cn2cc(Cl)ccc2n1 [Compound C33, 3-(6-chloroimidazo[1,2-a]pyridin-2-yl)-7-(piperazin-1-yl)-2H-chromen-2-one] |  |  |  | 11.6 | 
21 | COc1ccn2cc(-c3cc4ccc(N5CCNCC5)cc4oc3=O)nc2c1 [Compound C34, 3-(7-methoxyimidazo[1,2-a]pyridin-2-yl)-7-(piperazin-1-yl)-2H-chromen-2-one] |  |  |  | 3.6 | 
22 | COc1ccc2nc(-c3cc4ccc(N5CCNCC5)cc4oc3=O)cn2c1 [Compound C35, 3-(6-methoxyimidazo[1,2-a]pyridin-2-yl)-7-(piperazin-1-yl)-2H-chromen-2-one] |  |  |  | 3 | 
23 | O=c1oc2cc(N3CCNCC3)ccc2cc1-c1cn2ccc(C(F)(F)F)cc2n1 [Compound C36, 7-(piperazin-1-yl)-3-(7-(trifluoromethyl)imidazo[1,2-a]pyridin-2-yl)-2H-chromen-2-one] |  |  |  |  | Kd ([5]; Table 3): 1.4 ± 0.4 µM; Kd ([5]; Table 4): 1.39 ± 0.4 µM
24 | O=c1oc2cc(N3CCNCC3)ccc2cc1-c1cn2cc(C(F)(F)F)ccc2n1 [Compound C37, 7-(piperazin-1-yl)-3-(6-(trifluoromethyl)imidazo[1,2-a]pyridin-2-yl)-2H-chromen-2-one] |  |  |  | 14.1 | 
25 | O=c1oc2cc(N3CCNCC3)ccc2cc1-c1ccc2ncccc2c1 [Compound C38] | > 8 |  |  | 1.8 | 
26 | O=c1oc2cc(N3CCNCC3)ccc2cc1-c1ccc2ccccc2c1 [Compound C39] | > 8 |  |  | 7.9 | 
27 | CC1(C)CC(Oc2ccc(-c3ccc(-c4cn[nH]c4)cc3O)nn2)CC(C)(C)N1 [branaplam] |  |  |  |  | number of genes whose splicing is significantly affected [9]: 36 genes
